Square brackets hold non-standard residues; d marks the D form. Peptide text beside a SMILES is read from it. * marks the point of attachment. Biotinyl(3aR,4S,6aS) = O=C1N[C@H]2[C@H](CCCCC(=O)*)SC[C@H]2N1; Ala(cPent) = N[C@@H](CC1CCCC1)C(=O)O; Cha = N[C@@H](CC1CCCCC1)C(=O)O; Dap = NC[C@H](N)C(=O)O; Ahx = NCCCCCC(=O)O
Assays:
Protein AF-9 [1] = target: T1, Protein AF-9 (Homo sapiens, UniProt P42568); test: Binding affinity to MBP-tagged AF9 (unknown origin) (487 to 568 residues) expressed in Escherichia coli BL21(DE3) by Bio-layer interferometry
T1 sequence (P42568 whole entry): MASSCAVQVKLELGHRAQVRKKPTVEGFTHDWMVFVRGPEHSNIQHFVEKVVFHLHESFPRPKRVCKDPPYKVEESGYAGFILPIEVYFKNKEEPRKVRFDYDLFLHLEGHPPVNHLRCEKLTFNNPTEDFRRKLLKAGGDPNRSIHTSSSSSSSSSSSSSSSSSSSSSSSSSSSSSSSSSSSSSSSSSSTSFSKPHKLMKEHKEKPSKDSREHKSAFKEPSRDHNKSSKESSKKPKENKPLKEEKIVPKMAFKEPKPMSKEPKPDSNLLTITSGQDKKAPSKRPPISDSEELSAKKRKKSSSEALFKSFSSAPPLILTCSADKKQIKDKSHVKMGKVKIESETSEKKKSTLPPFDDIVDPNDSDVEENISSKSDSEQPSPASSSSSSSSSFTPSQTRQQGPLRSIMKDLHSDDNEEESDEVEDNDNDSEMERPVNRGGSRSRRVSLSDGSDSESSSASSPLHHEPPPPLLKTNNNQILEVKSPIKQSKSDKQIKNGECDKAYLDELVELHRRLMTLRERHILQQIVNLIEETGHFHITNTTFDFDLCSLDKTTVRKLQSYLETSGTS

Protein ENL [2] = target: T2, Protein ENL (Homo sapiens, UniProt Q03111); test: Binding affinity to MBP-tagged ENL (unknown origin) (489 to 559 residues) expressed in Escherichia coli BL21(DE3) by Bio-layer interferometry
T2 sequence (Q03111 whole entry): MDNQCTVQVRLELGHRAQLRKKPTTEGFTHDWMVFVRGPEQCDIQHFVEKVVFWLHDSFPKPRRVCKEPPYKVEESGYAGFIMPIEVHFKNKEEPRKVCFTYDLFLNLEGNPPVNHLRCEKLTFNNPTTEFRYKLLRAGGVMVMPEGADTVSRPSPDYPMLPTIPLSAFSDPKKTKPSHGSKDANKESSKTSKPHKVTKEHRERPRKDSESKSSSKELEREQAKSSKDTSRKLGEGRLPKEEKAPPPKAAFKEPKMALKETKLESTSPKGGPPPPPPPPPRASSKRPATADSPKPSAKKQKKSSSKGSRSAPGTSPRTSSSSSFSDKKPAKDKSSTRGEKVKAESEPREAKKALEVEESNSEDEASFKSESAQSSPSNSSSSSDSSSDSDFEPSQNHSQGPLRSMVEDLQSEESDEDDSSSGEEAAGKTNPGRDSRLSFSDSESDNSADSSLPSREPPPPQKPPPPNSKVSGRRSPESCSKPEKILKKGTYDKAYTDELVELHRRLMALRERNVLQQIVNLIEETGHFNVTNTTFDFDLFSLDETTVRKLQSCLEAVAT

Protein ENL [3] = target: T2, Protein ENL; test: Displacement of N-Flu-DOT1L from MBP-tagged ENL (unknown origin) (489 to 559 residues) expressed in Escherichia coli BL21(DE3) measured after 3 hrs by fluorescence polarization assay
Protein AF-9 [4] = target: T1, Protein AF-9; test: Displacement of N-Flu-DOT1L from MBP-tagged AF9 (unknown origin) (487 to 568 residues) expressed in Escherichia coli BL21(DE3) measured after 3 hrs by fluorescence polarization assay

SMILES	Kd (Protein AF-9 [1]) [µM]	Kd (Protein ENL [2]) [µM]	Ki (Protein ENL [3]) [µM]	Ki (Protein AF-9 [4]) [µM]	IC50 (Protein ENL [3]) [µM]	IC50 (Protein AF-9 [4]) [µM]
CC(C)C[C@H](NC(=O)[C@@H]1CCCN1C(=O)[C@H](CC1CCCC1)NC(=O)[C@H](CN)NC(=O)[C@@H](NC(=O)[C@@H]1CCCN1C(=O)[C@H](CC(C)C)NC(=O)CCCCCNC(=O)CCCC[C@@H]1SC[C@H]2NC(=O)N[C@@H]12)C(C)C)C(=O)N(C)C ({Biotinyl(3aR,4S,6aS)-Ahx}-LPV[Dap][Ala(cPent)]PL-NMe2)	0.015	0.057	0.063	0.01	–	–
CC[C@H](C)[C@H](NC(=O)[C@@H]1CCCN1C(=O)[C@H](CC(C)C)NC(C)=O)C(=O)N[C@@H](CO)C(=O)N[C@@H](CC1CCCCC1)C(=O)N1CCC[C@H]1C(=O)N[C@@H](CC(C)C)C(=O)N(C)C (Ac-LPIS[Cha]PL-NMe2)	–	–	1.88	0.18	6.06	1.14
